“And” between values parts separate entries of the source, which are not always exact repeats. Identical values can stand only once. “Also recorded” adds a separate entry of the source. Peptide text beside a SMILES is read from it.
Tests used:
hepatic GSH = assay: Test No. 4: dichloropropane (DCP) intoxication in vivo, hepatic GSH; set-up: species or system rat
Protocol: (§1) A test was carried out in vivo on four groups of four rats each, using, as a toxic substance, dichloropropane (DCP), the main constituent of several solvents. DCP is noxious both by ingestion and inhalation and has a notable toxicity to the liver, mediated by an almost total depletion of thiol groups, including those of GSH.
(§2) The experimental model involves the study of the effect of DCP toxicity in the rat, in respect of glutathione (GSH) concentration in the main target tissue: the liver.
(§3) Tests were carried out on four groups of rats. The first group of animals was administered 2 ml DCP/kg dissolved in oil (40% v/v) per os. Twenty-four hours after DCP administration, blood samples were taken for SGPT measurement, while the animals were sacrificed; small portions of liver were then excised and immediately deproteinized by homogenization in 6% PCA. The chromatographic analyses of GSH and GSSG (oxidized glutathione) were performed.
(§4) The second group of animals was treated with the test drug (600 mg/kg i.p.) two hours after DCP administration. The third and fourth groups were treated with N-acetyl-cysteine (NAC) (250 mg/kg i.p.) and, respectively, with glutathione (Tationil^R) (600 mg/kg i.p.).
An evaluation of the protective action of the test drug in respect of glutathione involvement in hepatic protection mechanisms was thus possible.

[1] = tested on: malonic aldehyde (MDA) in brain; assay: PSC effect on lipid peroxidation (MDA) in rat SNC; type: in vivo, male Wistar rats; details: old animals, 100 mg/kg i.p.
Text: Since lipid peroxidation, i.e. the oxidation of an α-methylenic bridge of a polyunsaturated fatty acid, is a process that, through the formation of intermediates (such as lipid peroxides and hydroperoxides), provide carbonyl fragments, including malonic aldehyde (MDA), efforts were made by the Applicant to check whether administration of the test molecule might reduce MDA levels in the SNC, which are closely related to the presence of free radicals and, consequently, to a potential neuronal damage, which is strongly responsible for the induction of age-related alterations.
The test was carried out on male Wistar rats stabled in groups of 5/cage, at 21° C. and constant light/dark cycle, fed with standard laboratory food.
[…] was assayed both on young and old rats, prior to and after treatment with PSC (100 mg/kg). A few hours after treatment, all animals were sacrificed and their brain readily excised. MDA was determined by a micromethod modified according to Slater and Sawyer (Slater T. F. and Sawyer B. C., 1971, J. Biochem., Tokio 8: 2180). The tissue was maintained 10 min. at 0° C. in 0.05M Tris-HCl buffer, pH 7.4, and homogenized. […] After cooling, the absorbance at 532 nm was recorded by a spectrophotometer. […] Proteins were measured by Smith's method using, as a reagent, bicinchoninic acid (BCA) (Smith et al., 1985, Anal. Biochem., 27, 502).

serum GPT = assay: Test No. 4: dichloropropane (DCP) intoxication in vivo, serum GPT; set-up: species or system rat
Protocol: as §1, §2, §3, §4

peripheral lymphocytes = assay: Blastization with phytohaemagglutinin (PHA) of peripheral lymphocytes of PSC-treated rats; type: in vivo, Sprague-Dawley rats; details: 600 mg/kg i.p. 15 days + PHA
Protocol: (§5) Sprague-Dawley rats (Charles River, Calco (CO)), aged 10 weeks (young adults) and 24 months (old), were stabled under standard conditions (24°±1° C., 12 h light/dark cycle, free access to food and water). Handlings were made in such a way as to avoid stressful stimuli.
(§6) The animals were stabled in groups of 6 per cage and treated for 2 weeks (15 days) with a PSC daily dose of 600 mg/kg by intraperitoneal route (i.p.).
Once the treatment with PSC previously described in the paragraph "Animals" was completed, the animals, both young and old, were sacrificed by decapitation and the blood collected in heparin-treated tubes. The blood samples were stratified on Ficoll-Paque gradient and centrifuged at 2500 rpm for 15 min. The lymphocytic cellular fraction was taken by suction and washed three times with a Lphysiological solution (0.9% NaCl). At the end of the treatment, the cells were resuspended in culture medium RPMI 1640 containing 10% FBS, counted (1×10^5 cells/0.1 ml/well) and incubated for 48 hrs at 37° C., in a 5% carbon dioxide environment. At the incubation end, mitogens concavaline A (ConA) and phytohaemagglutinin (PHA) were added to the cultures at a concentration of 1 μg/ml in a volume of 0.1 ml. Eighteen hours later, tritiated thymidine (0.01 ml) was added to the cultures, subsequently incubated for 3 hrs. […] Radioactivity (dpm) was measured 2 min. using a β-counter. […]

interleukin-2 (IL-2) = assay: Interleukin-2 (IL-2) production following interleukin-1 (IL-1) i.p. injection in young and old rats; type: in vivo, Sprague-Dawley rats; details: i.p. treated groups
Protocol: as §5, §6
With a view to evaluating a further aspect of the immunological activity in PSC-treated (600 mg/kg) animals, according to the aforementioned scheme, an investigation was carried out on interleukin-2 (IL-2) response to the injection of IL-1 that, as known, stimulates IL-2 production from lymphocytes.
Once the treatment was completed, each rat was administered IL-1 (0.1 mg/kg, i.p.). One hour after injection, the animals were killed by decapitation, the blood was collected and centrifuged, and the plasma maintained at -20° C. until IL-2 dosing.
The evaluation of IL-2 production was based on an immunological assay, utilizing a specific antibody produced in heterologous species against rat IL-2. Samples were assayed twice.
The controls are rats treated only with IL-1.

[2] = tested on: murine fibrosarcoma cells (WEHI 164 clone 13); assay: Transplantable neoplasms: murine fibrosarcoma tumoral mass growth in BALB/c mice; type: in vivo
Protocol: Male adult BALB/c mice weighing 20 g were stabled under standard conditions (24°±1° C., 12 h light/dark cycle, free access to food and water). Handlings were made in such a way as to avoid stressful stimuli.
All animals, subdivided into groups of 6, were treated 4 weeks with a PSC dose (600 mg/kg). After a 2 week treatment, the mice were inoculated intramuscularly (i.m.) with murine fibrosarcoma WEHI 164 clone 13 cells or Lewis lung carcinoma in an amount of 1×10^5 cells. Treatment was continued two weeks after tumour inoculation. The mice were sacrificed and the tumoral mass growth and the development of metastases, if any, were evaluated.

CC(=O)SC[C@H](NC(=O)[C@@H]1CCC(=O)N1)C(=O)O [PSC, 2-(S)-(2-pyrrolidone-5-(S)-carbonyl amido)-3-acetylmercapto propionic acid] (HELM PEPTIDE1{[Glp].C}|PEPTIDE2{[ac]}$PEPTIDE1,PEPTIDE2,2:R3-1:R2$$$V2.0)
normalization of hepatic GSH (in words) (hepatic GSH; DCP-treated rats): could not normalize the values of hepatic GSH
GSH, average values (hepatic GSH; liver, DCP 2 ml/kg per os + 600 mg/kg i.p.): 2.7 nmol/mg protein
GSH, individual animals (hepatic GSH; liver, DCP 2 ml/kg per os + 600 mg/kg i.p., animals 1-4, listed as (I) (R = CH3), 600 mg/kg): 2.6 nmol/mg protein and 2.4 nmol/mg protein and 3.4 nmol/mg protein
MDA [1]: 0.723 +/- 0.32 nmols/mg proteins
GPT, average values (serum GPT; DCP + 600 mg/kg i.p.): 22.0 U/1
GPT, individual animals (serum GPT; DCP + 600 mg/kg i.p., animals 1-4, listed as (I) (R = CH3), 600 mg/kg): 24.4 U/1 and 26.4 U/1 and 17.4 U/1 and 20.1 U/1
GPT (serum GPT; DCP + (I)(R=CH3)): 22.0 U/l
Serum GPT (in words) (serum GPT; DCP-treated rats): maintained within standard limits
blastization (tritiated thymidine incorporation), Young (peripheral lymphocytes): 703 ± 44 DPM × 100
blastization (tritiated thymidine incorporation), Elderly (peripheral lymphocytes; *P < 0.05): 533 ± 29 DPM × 100
IL-2 levels (in words) (interleukin-2 (IL-2)): significant increases were detected in the groups treated i.p. with PSC
tumoural growth, fibrosarcoma (in words) ([2]; 600 mg/kg): prevented tumoural growth; also recorded: significantly slows down the growth of fibrosarcomatous tumours in the rat
Tumoral mass diameter, 15th day ([2]; 600 mg/kg i.p., 30 days' treatment): 0.6 ± 0.03 cm
